Reference: patent US9873699B1, “Anti-cancer agents” (KING SAUD UNIVERSITY, priority 2017, dated 2018)

tested on: FaDu hypopharyngeal tumor cells; experiment: Cytotoxicity assay (MTT); type: cell-based; conditions: 48 h
Description: The synthesized series of compounds 4a-m stock solution were prepared by dissolved in DMSO (Sigma-Aldrich, St. Louis, Mo., USA) or dH2O. The stock solutions were diluted with cell culture medium and used as a working solution. Different concentration of working solution was exposed to 5 to 7×10^3 cells seeded 96 well plates after 24 h incubation. DMSO/dH2O was used as the solvent control. Nuclear morphological changes were monitored and photographed following treatment of synthesized compounds for 48 h using inverted microscope (Carl Zeiss, Jena, Germany). After incubation, plates were centrifuged and washed with cell culture medium. Subsequently, 20 μL of MTT solution [5 mg/mL in phosphate-buffered saline (PBS)] was added to each well, and the plates were protected from light and kept in CO2 incubator at 37° C. for 4 h. The purple color formazan product was formed and dissolved in 100 μL of DMSO. The absorbance was monitored at 570 nm (measurement) and 630 nm (reference) using a 96 well plate reader (Bio-Rad, Hercules, Calif., USA). Data were collected for four replicates each and used to calculate the median effect dose or concentration, i.e., IC50 using the Calcusyn software.
The cytotoxicity of synthesized compounds 4(a-m) on FaDu hypopharyngeal tumor cells was assessed for 48 h, in comparison with the commercial anti-cancer drug bleomycin under identical conditions (FIGS. 6&7). […] The percentage of apoptotic cells is indicated by the histograms and the data shown are the means from triplicates. Vertical bars represent standard error of the mean.

Compound	cytotoxicity against cancer cells (in words)
5′-benzyl-4′-(2,4-dichloropheynyl)-5-spiro[3,2′]oxindolopyrrolidino-4′-(2,4-dichlorophenyl-1″-styryl-5-benzylidene-spiro[3′.3″]piperidi-4″-one [Compound 4e]	good cytotoxicity
5′-benzyl-4′-(4-bromopheynyl)-5-spiro[3,2′]oxindolopyrrolidino-4′-(4-bromophenyl-1″-styryl-5-benzylidene-spiro[3′.3″]piperidi-4″-one [Compound 4c]	good cytotoxicity
5′-benzyl-5-spiro[3,2′]oxindolopyrrolidino-4′-(methylphenyl)-1″-styryl-5-benzylidene-spiro[3′.3″]piperidi-4″-one [Compound 4a]	excellent cytotoxic property
O=C1Nc2ccccc2C12NC(Cc1ccccc1)C(c1ccccc1Cl)C21CN(C=Cc2ccccc2)CC(=Cc2ccccc2Cl)C1=O (stereo not drawn) [Compound 4d]	good cytotoxicity
Cc1ccccc1C=C1CN(C=Cc2ccccc2)CC2(C1=O)C(c1ccccc1C)C(Cc1ccccc1)NC21C(=O)Nc2ccccc21 (stereo not drawn) [Compound 4g, 5′-benzyl-4′-(2-tolyl)-5-spiro[3,2′]oxindolopyrrolidino-4′-(2-methylphenyl)-1″-styryl-5-benzylidene-spiro[3′.3″]piperidi-4″-one]	excellent cytotoxic property
Cc1cccc(C=C2CN(C=Cc3ccccc3)CC3(C2=O)C(c2cccc(C)c2)C(Cc2ccccc2)NC32C(=O)Nc3ccccc32)c1 (stereo not drawn) [Compound 4h, 5′-benzyl-4′-(3-tolyl)-5-spiro[3,2′]oxindolopyrrolidino-4′-(3-methylphenyl)-1″-styryl-5-benzylidene-spiro[3′.3″]piperidi-4″-one]	good cytotoxicity
